Reference: patent publication US20120041035A1, “LEVAMLODIPINE COMPOUND PHARMACEUTICAL COMPOSITION” (SHIHUIDA PHARMACEUTICALS GROUP (JILIN) LTD, priority 2010, published 2012)

Test system: primary hypertension patients (systolic pressure ≧160 mmHg)
Assay: Clinical use in primary hypertension patients, 8-week treatment
Assay type: in vivo, human
Conditions: after 8-week treatment, levamlodipine 5.0 mg/d, chlorthalidone 25.0 mg/d; for Edema Incidence / Hypokalemia Incidence: combined 2.5 mg/d and 12.5 mg/d; for Decrease of Systolic Pressure: combined levamlodipine 2.5 mg/d and chlorthalidone 12.5 mg/d, 30 patients each
Description: The selected primary hypertension patients (with a systolic pressure ≧160 mmHg) were divided into 3 groups of 30 patients each, the levamlodipine group was given levamlodipine at 5.0 mg/d; the chlorthalidone group was given chlorthalidone at 25.0 mg/d; and the combined administration group was given levamlodipine at 2.5 mg/d and chlorthalidone at 12.5 mg/d. After 8-week treatment, the decease of the systolic pressure, the edema incidence, and the hypokalemia incidence were observed.

SMILES	Edema Incidence [%]	Hypokalemia Incidence [%]	Decrease of Systolic Pressure [mmHg]
NS(=O)(=O)c1cc(C2(O)NC(=O)c3ccccc32)ccc1Cl (stereo not drawn) [Chlorthalidone, 5(2,3-dihydro-1-hydroxy-3-oxo-1H-isoindol-1-yl)-2-chlorobenzenesulfonamide]	0	20.3	20.5 ± 8.5
CCOC(=O)C1=C(COCCN)NC(C)=C(C(=O)OC)[C@@H]1c1ccccc1Cl [Levamlodipine, 3-ethyl-5-methyl-2-(2-aminoethoxymethyl)-4-(2-chlorophenyl)-1,4-dihydro-6-methyl-3,5-pyridine dicarboxylate]	10	0	22.7 ± 7.8
